Reference: patent EP2832223A1, “HERBICIDAL COMPOSITION” (Ishihara Sangyo Kaisha, Ltd., priority 2012, dated 2013)

Experiments:
Assay type in all cases: in vivo
[1] = system: common cocklebur (Xanthium strumarium L.); test: Test Example 1: pot test, foliar treatment, visual growth inhibition; conditions: 1000 g/ha, foliar treatment at 4.3 to 4.8-leaf stage, 22nd day after treatment, read-out: Growth inhibition rate (%) of common cocklebur Measured value
Source text: In the present invention, a synergistic effect means a higher herbicidal activity of three active ingredients combined, than the simple sum of the respective herbicidal activities of the three active ingredients (the expected activity). The activity expected by the combination of three active ingredients can be calculated as follows (Colby S.R., "Weed", vol. 15, p. 20-22, 1967). […] Upland field soil was put into a 1/300,000 ha pot, and seeds of common cocklebur (Xanthium strumarium L.) were sown. […] Click, manufactured by BASF) and EC formulation containing dimethenamid-P as an active ingredient (tradename: Spectrum, manufactured by BASF) were diluted with water (in an amount corresponding to 1,000 L/ha) and applied for foliar treatment by a small sprayer. On the 22nd day after treatment, the state of growth of the common cocklebur was visually observed to determine the growth inhibition rate (%) in accordance with the following evalution standard. The growth inhibition rate (%) (measured value) and the growth inhibition rate (%) (calculated value) calculated by the Colby's formula are shown in Table 1.

[2] = system: guinea grass (Panicum maximum Jacq.); test: Test Example 17: pot test, soil and foliar treatment, visual growth inhibition; conditions: Megathyrsus maximus, 1000 g/ha, 29th day after treatment, read-out: Growth inhibition rate (%) of guinea grass Measured value
Experimental: (§1) Upland field soil was put into a 1/1,000,000 ha pot, and seeds of guinea grass (Panicum maximum Jacq.) were sown. When the guinea grass reached 5.2 to 6.0-leaf stage, seeds of guinea grass were further sown in the same pot assuming conditions such that weeds would later grow. Three days later, predetermined amounts of ONEHOPE NYUZAI (tradename), Click (tradename) and Spectrum (tradename) were diluted with water in an amount corresponding to 300 L/ha and applied for soil treatment and for foliar treatment by a small sprayer.
(§2) On the 29th day after treatment, the state of growth of the guinea grass was visually observed to determine the growth inhibition rate (%). The growth inhibition rate (%) (measured value) and the growth inhibition rate (%) calculated in the same manner as in the above Test Example 1 are shown in Table 17.

[3] = system: rostrate sesbania (Sesbania rostrata Bremek. & Oberm.); test: Test Example 8: pot test, soil treatment, visual growth inhibition; conditions: 2000 g/ha, soil treatment, 28th day after treatment, read-out: Growth inhibition rate (%) of rostrate sesbania Measured value
Experimental: (§3) Upland field soil was put into a 1/300,000 ha pot, and seeds of rostrate sesbania (Sesbania rostrata Bremek. & Oberm.) were sown. On the next day, predetermined amounts of ONEHOPE NYUZAI (tradename), Click (tradename), Spectrum (tradename) and Clio (tradename) were diluted with water (in an amount corresponding to 1,000 L/ha) and applied for soil treatment by a small sprayer.
as §2, with “28th” for “29th”, “rostrate sesbania” for “guinea grass”, “8.” for “17.”

[4] = system: prickly sida (Sida spinosa L.); test: Test Example 10: pot test, soil treatment, visual growth inhibition; conditions: 200 g/ha, soil treatment, 28th day after treatment, read-out: Growth inhibition rate (%) of prickly sida Measured value
Experimental: as §3, with “prickly sida (Sida spinosa L.)” for “rostrate sesbania (Sesbania rostrata Bremek. & Oberm.)”, “Spectrum (tradename), Callisto” for “Spectrum”
as §2, with “28th” for “29th”, “prickly sida” for “guinea grass”, “10.” for “17.”

[5] = system: guinea grass (Panicum maximum Jacq.); test: Test Example 15: pot test, soil and foliar treatment, visual growth inhibition; conditions: Megathyrsus maximus, 31st day after treatment, read-out: Growth inhibition rate (%) of guinea grass Measured value
Experimental: as §1, with “On the next day,” for “Three days later,”, “Click (tradename), Spectrum” for “Click”, “Cadou” for “Spectrum”
as §2, with “31 st” for “29th”, “15.” for “17.”

[6] = system: Japanese millet (Echinochloa utilis Ohwi et Yabuno); test: Test Example 13: pot test, soil and foliar treatment, visual growth inhibition; conditions: read-out: Growth inhibition rate (%) of Japanese millet Measured value
Experimental: Upland field soil was put into a 1/1,000,000 ha pot, and seeds of Japanese millet (Echinochloa utilis Ohwi et Yabuno) were sown. When the Japanese millet reached 3.8 to 4.0-leaf stage, seeds of Japanese millet were further sown in the same pot. On the next day, predetermined amounts of ONEHOPE NYUZAI (tradename), Click (tradename) and a wettable powder containing bicyclopyrone prepared in accordance with a conventional formulation method were diluted with water (in an amount corresponding to 1,000 L/ha) and applied for soil treatment and for foliar treatment by a small sprayer.
as §2, with “28th” for “29th”, “Japanese millet” for “guinea grass”, “13.” for “17.”

[7] = system: Japanese millet (Echinochloa utilis Ohwi et Yabuno); test: Test Example 9: pot test, soil treatment, visual growth inhibition; conditions: soil, read-out: Growth inhibition rate (%) of Japanese millet Measured value
Experimental: (§4) Upland field soil was put into a 1/300,000 ha pot, and seeds of Japanese millet (Echinochloa utilis Ohwi et Yabuno) were sown. On the next day, predetermined amounts of ONEHOPE NYUZAI (tradename), Click (tradename), Mikado (tradename) and a wettable powder containing bicyclopyrone prepared in accordance with a conventional formulation method were diluted with water (in an amount corresponding to 1,000 L/ha) and applied for soil treatment by a small sprayer.
as §2, with “28th” for “29th”, “Japanese millet” for “guinea grass”, “9.” for “17.”

[8] = system: sunn-hemp (Crotalaria juncea L.); test: Test Example 7: pot test, soil treatment, visual growth inhibition; conditions: soil, read-out: Growth inhibition rate (%) of sunn-hemp Measured value
Experimental: as §4, with “sunn-hemp (Crotalaria juncea L.)” for “Japanese millet (Echinochloa utilis Ohwi et Yabuno)”
as §2, with “28th” for “29th”, “sunn-hemp” for “guinea grass”, “7.” for “17.”

[9] = system: wild oat (Avena fatua L.); test: Test Example 4: pot test, soil treatment, visual growth inhibition; conditions: soil, read-out: Growth inhibition rate (%) of wild oat Measured value
Experimental: as §4, with “1/1,000,000” for “1/300,000”, “wild oat (Avena fatua L.)” for “Japanese millet (Echinochloa utilis Ohwi et Yabuno)”, “Click” for “Click (tradename), Mikado”
as §2, with “28th” for “29th”, “wild oat” for “guinea grass”, “4.” for “17.”

[10] = system: annual ragweed (Ambrosia artemisiifolia L.); test: Test Example 11: pot test, soil treatment, visual growth inhibition; conditions: soil, read-out: Growth inhibition rate (%) of annual ragweed Measured value
Experimental: as §4, with “annual ragweed (Ambrosia artemisiifolia L.)” for “Japanese millet (Echinochloa utilis Ohwi et Yabuno)”
as §2, with “28th” for “29th”, “annual ragweed” for “guinea grass”, “11.” for “17.”

[11] = system: velvetleaf (Abutilon theophrasti Medic.); test: Test Example 16: pot test, soil and foliar treatment, visual growth inhibition; conditions: read-out: Growth inhibition rate (%) of velvetleaf Measured value
Source text: (§5) Upland field soil was put into a 1/1,000,000 ha pot, and seeds of velvetleaf (Abutilon theophrasti Medic.) were sown. When the velvetleaf reached 4.0 to 4.3-leaf stage, seeds of velvetleaf were further sown in the same pot assuming conditions such that weeds would later grow. Three days later, predetermined amounts of ONEHOPE NYUZAI (tradename), Click (tradename), Callisto (tradename), Mikado (tradename), a wettable powder containing bicyclopyrone as an active ingredient and Clio (tradename) were diluted with water in an amount corresponding to 300 L/ha and applied for soil treatment and for foliar treatment by a small sprayer.
as §2, with “velvetleaf” for “guinea grass”, “16.” for “17.”

[12] = system: velvetleaf (Abutilon theophrasti Medic.); test: Test Example 14: pot test, soil and foliar treatment, visual growth inhibition; conditions: read-out: Growth inhibition rate (%) of velvetleaf Measured value
Source text: as §5, with “On the next day,” for “Three days later,”
as §2, with “31 st” for “29th”, “velvetleaf” for “guinea grass”, “14.” for “17.”

[13] = system: korean lespedeza (Kummerowia stipulacea (Maxim.) Makino); test: Test Example 6: pot test, soil treatment, visual growth inhibition; conditions: soil, read-out: Growth inhibition rate (%) of korean lespedeza Measured value
Experimental: as §4, with “korean lespedeza (Kummerowia stipulacea (Maxim.) Makino)” for “Japanese millet (Echinochloa utilis Ohwi et Yabuno)”
as §2, with “14th” for “29th”, “korean lespedeza” for “guinea grass”, “6.” for “17.”

## COC[C@H](C)N(C(=O)CCl)c1c(C)csc1C [Dimethenamid-P, (S)-2-chloro-N-(2,4-dimethyl-3-thienyl)-N-(2-methoxy-1-methylethyl)acetamide]
[1]
  inhibition at 1000 g/ha: 0%
[2]
  inhibition at 1000 g/ha: 55%
[3]
  inhibition at 2000 g/ha: 40%
[4]
  inhibition at 200 g/ha: 0%
[5]; 500 g/ha
  inhibition at 500 g/ha: 57%
[5]; 1000 g/ha
  inhibition at 1000 g/ha: 60%

## COCCOCc1nc(C(F)(F)F)ccc1C(=O)C1=C(O)C2CCC(C2)C1=O (stereo not drawn) [Bicyclopyrone, 4-hydroxy-3-{2-[(2-methoxyethoxy)methyl]-6-(trifluoromethyl)-3-pyridylcarbonyl}bicyclo[3.2.1]oct-3-en-2-one]
[6]
  inhibition at 100 g/ha: 78%
[7]
  inhibition at 25 g/ha: 83%
[8]
  inhibition at 25 g/ha: 20%
[9]
  inhibition at 100 g/ha: 25%
[10]
  inhibition at 100 g/ha: 88%
[11]
  inhibition at 75 g/ha: 89%
[12]
  inhibition at 50 g/ha: 88%
  inhibition at 150 g/ha: 93%
[13]
  inhibition at 400 g/ha: 15%
